The source of these data is patent US9949980B2, “Drugs to prevent HPV infection” (Wisconsin Alumni Research Foundation, priority 2008, dated 2018).

Like-named read-outs stand apart in the source and are kept apart here.

The viability is a read-out of living cells in per cent, often relative to untreated cells.

One series is described as follows: in vitro. The conditions noted are these: human, Viability (CelTiter Glow). Here is the method:
(§1) FIG. 1. High throughout screen (HTS) for identifying inhibitors of HPV infection. Shown is a schematic showing basic steps in the HTS. […] Briefly, HPV16 pseudoviruses containing the SEAP reporter genes are analyzed for their ability to infect as judged by the levels of secreted alkaline phosphatase in the tissue culture supernatant (light grey arrows). Cell viability was assessed in parallel on the same wells (dark grey arrows). In the specific HTS carried out in this study, the compounds were added at 3 uM/1% DMSO final concentration (black arrow) 4 hours prior to infection.
(§2) After incubation at 37° C. for 24 hrs, 35 μL of media was removed. […] Cells were incubated at 37° C. for 48 hrs. 2.5 μL of media was collected for SEAP assay using a PHOSPHA-LIGHT chemiluminescent alkaline phosphatase assay (Applied Biosystems). Cell viability was determined using the CellTiter Glo Luminescent Cell Viability Assay™ (Promega).

A further series has as its system HPV16 pseudoviruses. Kind of series: microbe, parasite or virus in culture. The settings on record: Human papillomavirus 16, HEK-293T, 48 h. The format is cell-based. The procedure: as §1, §2
[1] abbreviates: read-out: Infectivity (SEAP Activity), 3 μM HTS standard concentration, 293T cells, 48 hrs.
[2] abbreviates: read-out: Infectivity vs. viability, 3 μM HTS standard concentration, ratio infectivity/viability.

In the case of `O=C1NCCCC1c1n[nH]c(=S)n1Cc1ccccc1` (centres unmarked) [BTB 00471, 3-[4-(phenylmethyl)-5-sulfanylidene-1H-1,2,4-triazol-3-yl]piperidin-2-one], the viability at 52 h, 3 μM in the series “in vitro” was found to be 109%. The activity at 3 µM in the series with HPV16 pseudoviruses (setting [1]) worked out at 41%; with HPV16 pseudoviruses (setting [2]), 37.5%.

For the compound `CN(C)C=C=C(O)c1ccccc1C(=O)c1ccc(Cl)cc1` [BTB 08556, (4-chlorophenyl)-[2-(3-dimethylamino-1-hydroxypropa-1,2-dienyl)phenyl]methanone], in “in vitro”, the viability at 52 h, 3 μM was 106%. The figures for the activity at 3 µM in the series on HPV16 pseudoviruses (setting [1]) and with HPV16 pseudoviruses (setting [2]) were 55.3% and 52%, respectively.

Turning to `CC(C)(C)NC(=O)C=Cc1cc([N+](=O)[O-])ccc1Sc1ccc(C(F)(F)F)cn1` [BTB 09390, N1-(tert-butyl)-3-(5-nitro-2-{[5-(trifluoromethyl)-2-pyridyl]thio}phenyl)acrylamide], in the series “in vitro”, the viability at 52 h, 3 μM turned out to be 81.2%. Also, the activity at 3 µM with HPV16 pseudoviruses (setting [1]) came out at 28.9%; with HPV16 pseudoviruses (setting [2]), 35.6%.

In the case of `N#CCCOCc1cccc2ccccc12` [Compound 5102121, 3-(1-naphthylmethoxy)propanenitrile], the viability at 52 h, 3 μM in the series “in vitro” was 110%. Also, the activity at 3 µM was 55.8% in the series on HPV16 pseudoviruses (setting [1]) and 50.6% with HPV16 pseudoviruses (setting [2]).

As to `CC(=NNC(N)=O)C1CC1(C)C(C)(C)C` (centres unmarked) [Compound 5104160, 1-(2-tert-butyl-2-methylcyclopropyl)-1-ethanone semicarbazone], in “in vitro”, the viability at 52 h, 3 μM was found to be 112%. Besides, the activity at 3 µM was 63% with HPV16 pseudoviruses (setting [1]) and 56.2% in the series with HPV16 pseudoviruses (setting [2]).

For `O=S(=O)(Nc1nc2ccccc2nc1Nc1ccccc1)c1ccccc1` [Compound 5123541, N-(3-anilino-2-quinoxalinyl)benzenesulfonamide], in “in vitro”, the viability at 52 h, 3 μM stood at 106%. Moreover, the activity at 3 µM with HPV16 pseudoviruses (setting [1]) was 47%; with HPV16 pseudoviruses (setting [2]) it was 44.5%.

Take `O=C(NC(NC(=S)Nc1ccccc1[N+](=O)[O-])C(Cl)(Cl)Cl)c1ccco1` (centres unmarked) [Compound 5143070, N-[2,2,2-trichloro-1-({[(2-nitrophenyl)amino]carbonothioyl}amino)ethyl]-2-furamide]: the viability at 52 h, 3 μM in “in vitro” stood at 108%. Also, the values for the activity at 3 µM with HPV16 pseudoviruses (setting [1]) and in the series with HPV16 pseudoviruses (setting [2]) were 43.7% and 40.5%, respectively.

Turning to `O=C(Nc1ccc(Cl)cc1)Nc1ccc([N+](=O)[O-])cc1Br` [Compound 5191771, N-(2-bromo-4-nitrophenyl)-N′-(4-chlorophenyl)urea], in “in vitro”, the viability at 52 h, 3 μM stood at 95.2%. The activity at 3 µM was 39.9% in the series on HPV16 pseudoviruses (setting [1]) and 41.9% with HPV16 pseudoviruses (setting [2]).

As for `O=C(NC(=S)Nc1ccc([N+](=O)[O-])cc1O)C12CC3CC(CC(C3)C1)C2` [Compound 5197089, N-{[(2-hydroxy-4-nitrophenyl)amino]carbonothioyl}-1-adamantanecarboxamide], the viability at 52 h, 3 μM in “in vitro” worked out at 67%. Besides, the activity at 3 µM stood at 2.01% in the series with HPV16 pseudoviruses (setting [1]) and 2.99% in the series with HPV16 pseudoviruses (setting [2]).

Turning to `CCN(C(=O)c1ccccc1Cl)c1ccccc1` [Compound 5272305, 2-chloro-N-ethyl-N-phenylbenzamide], the viability at 52 h, 3 μM in the series “in vitro” amounted to 104%. The values for the activity at 3 µM in the series with HPV16 pseudoviruses (setting [1]) and in the series on HPV16 pseudoviruses (setting [2]) were 47.4% and 45.6%, respectively.

As for `O=C(CSc1nc2cc([N+](=O)[O-])ccc2[nH]1)Nc1ccc2c(c1)OCO2` [Compound 5349092, N-1,3-benzodioxol-5-yl-2-[(5-nitro-1H-benzimidazol-2-yl)thio]acetamide], in the series “in vitro”, the viability at 52 h, 3 μM was 103%. In addition, the activity at 3 µM with HPV16 pseudoviruses (setting [1]) was 52.5%; with HPV16 pseudoviruses (setting [2]), 51.1%.

On to `NC(=O)NC(c1ccccc1)c1ccccc1Br` (centres unmarked) [Compound 5571356, N-[(2-bromophenyl)(phenyl)methyl]urea], for which the viability at 52 h, 3 μM in “in vitro” came to 106%. Further, the values for the activity at 3 µM in the series on HPV16 pseudoviruses (setting [1]) and in the series on HPV16 pseudoviruses (setting [2]) were 59.1% and 56%, respectively.

For the compound `COc1cc(C=C2C(=O)NN(c3ccc(Cl)c(Cl)c3)C2=O)c([N+](=O)[O-])cc1OC` [Compound 5581710, 1-(3,4-dichlorophenyl)-4-(4,5-dimethoxy-2-nitrobenzylidene)-3,5-pyrazolidinedione], the viability at 52 h, 3 μM in the series “in vitro” was 75.1%. Moreover, the activity at 3 µM in the series with HPV16 pseudoviruses (setting [1]) came to 23.9%; in the series on HPV16 pseudoviruses (setting [2]) it was 31.9%.

Take `O=C1NN(c2ccc(Cl)c(Cl)c2)C(=O)C1=Cc1ccc(Cl)c([N+](=O)[O-])c1` [Compound 5585119, 4-(4-chloro-3-nitrobenzylidene)-1-(3,4-dichlorophenyl)-3,5-pyrazolidinedione]: in “in vitro”, the viability at 52 h, 3 μM was 108%. Also, the activity at 3 µM in the series on HPV16 pseudoviruses (setting [1]) amounted to 54.4%; in the series on HPV16 pseudoviruses (setting [2]), 50.5%.

Take `Cc1ccc(NC(=O)Cc2ccc(F)cc2)cc1` [Compound 5585700, 2-(4-fluorophenyl)-N-(4-methylphenyl)acetamide]: the viability at 52 h, 3 μM in “in vitro” worked out at 105%. Also, the activity at 3 µM in the series with HPV16 pseudoviruses (setting [1]) amounted to 55.4%; in the series with HPV16 pseudoviruses (setting [2]), 52.5%.

As to `O=[N+]([O-])c1cccc(C2Nc3ccc(Cl)cc3C3C=CCC32)c1` (centres unmarked) [Compound 5658856, 8-chloro-4-(3-nitrophenyl)-3a,4,5,9b-tetrahydro-3H-cyclopenta[c]quinoline], the viability at 52 h, 3 μM in the series “in vitro” is 75.7%. Besides, the values for the activity at 3 µM in the series with HPV16 pseudoviruses (setting [1]) and with HPV16 pseudoviruses (setting [2]) were 14.4% and 19.1%, respectively.

`COc1cccc(C(=O)Nc2ccc3oc(-c4ccc(F)cc4Cl)nc3c2)c1` [Compound 5715107, N-[2-(2-chloro-4-fluorophenyl)-1,3-benzoxazol-5-yl]-3-methoxybenzamide]: the viability at 52 h, 3 μM in “in vitro” is 111%. Besides, the activity at 3 µM in the series with HPV16 pseudoviruses (setting [1]) turned out to be 42.5%; in the series with HPV16 pseudoviruses (setting [2]), 38.2%.

On to `CCOc1ccc(N(CC(=O)Nc2c(C)cccc2C)S(=O)(=O)c2ccc(SC)cc2)cc1` [Compound 5740080, N~1~-(2,6-dimethylphenyl)-N~2~-(4-ethoxyphenyl)-N~2~-{[4-(methylthio)phenyl]sulfonyl}glycinamide], for which the viability at 52 h, 3 μM in the series “in vitro” was 104%. The activity at 3 µM is 42.2% in the series on HPV16 pseudoviruses (setting [1]) and 40.7% in the series with HPV16 pseudoviruses (setting [2]).

Turning to `O=C(Nc1ccccc1)Nc1nnc(Cc2ccc(F)cc2)s1` [Compound 5789300, N-[5-(4-fluorobenzyl)-1,3,4-thiadiazol-2-yl]-N′-phenylurea], the viability at 52 h, 3 μM in the series “in vitro” was determined as 98.4%. For the same compound, the values for the activity at 3 µM in the series with HPV16 pseudoviruses (setting [1]) and with HPV16 pseudoviruses (setting [2]) were 40.1% and 40.8%, respectively.

As to `O=C(Nc1sc2c(c1C(=O)NCCc1ccccc1)CCCCC2)c1ccccc1F` [Compound 5794700, 2-[(2-fluorobenzoyl)amino]-N-(2-phenylethyl)-5,6,7,8-tetrahydro-4H-cyclohepta[b]thiophene-3-carboxamide], the viability at 52 h, 3 μM in the series “in vitro” worked out at 109%. Moreover, the activity at 3 µM in the series on HPV16 pseudoviruses (setting [1]) came to 49.2%; with HPV16 pseudoviruses (setting [2]), 45.1%.

As to `COc1ccc(Cl)cc1C(=O)Nc1ccc(NC(=O)c2ccc(C(C)(C)C)cc2)cc1` [Compound 5795860, N-{4-[(4-tert-butylbenzoyl)amino]phenyl}-5-chloro-2-methoxybenzamide], the viability at 52 h, 3 μM in “in vitro” was found to be 111%. The results for the activity at 3 µM in the series with HPV16 pseudoviruses (setting [1]) and in the series with HPV16 pseudoviruses (setting [2]) were 47.1% and 42.4%, respectively.

For the compound `Cc1ccnc(NS(=O)(=O)c2ccc(N3C(=O)c4ccccc4C3=O)cc2)n1` [Compound 5842264, 4-(1,3-dioxo-1,3-dihydro-2H-isoindol-2-yl)-N-(4-methyl-2-pyrimidinyl)benzenesulfonamide], the viability at 52 h, 3 μM in the series “in vitro” turned out to be 113%. The activity at 3 µM was found to be 67% in the series with HPV16 pseudoviruses (setting [1]) and 59.6% with HPV16 pseudoviruses (setting [2]).

Regarding `O=C1C(=Cc2cccc(O)c2)SC(=S)N1c1ccc(Cl)cc1` [Compound 5851060, 3-(4-chlorophenyl)-5-(3-hydroxybenzylidene)-2-thioxo-1,3-thiazolidin-4-one], the viability at 52 h, 3 μM in “in vitro” was 102%. For the same compound, the activity at 3 µM in the series with HPV16 pseudoviruses (setting [1]) came to 56.3%; in the series with HPV16 pseudoviruses (setting [2]), 55.3%.

As for `CCOC(=O)[C@H]1C(=O)c2ccccc2C(=O)/C1=C/c1ccc(CC)cc1` [Compound 5860904, ethyl (2R,3E)-3-[(4-ethylphenyl)methylidene]-1,4-dioxonaphthalene-2-carboxylate], in “in vitro”, the viability at 52 h, 3 μM came out at 66%. Further, the activity at 3 µM in the series with HPV16 pseudoviruses (setting [1]) amounted to 21.9%; in the series on HPV16 pseudoviruses (setting [2]) it was 33.2%.

`Cc1ccc(S(=O)(=O)N(C)c2ccc(Br)cc2C(=O)c2ccccc2)cc1` [Compound 5867793, N-(2-benzoyl-4-bromophenyl)-N,4-dimethylbenzenesulfonamide]: in “in vitro”, the viability at 52 h, 3 μM was determined as 95%. Also, the activity at 3 µM was found to be 36.1% with HPV16 pseudoviruses (setting [1]) and 38% in the series with HPV16 pseudoviruses (setting [2]).

In the case of `COc1cc(C=C2SC(=S)NC2=O)cc(Cl)c1OC(C)C` [Compound 5868253, 5-(3-chloro-4-isopropoxy-5-methoxybenzylidene)-2-thioxo-1,3-thiazolidin-4-one], the viability at 52 h, 3 μM in the series “in vitro” is 66.8%. Moreover, the activity at 3 µM in the series on HPV16 pseudoviruses (setting [1]) is 4.97%; with HPV16 pseudoviruses (setting [2]), 7.45%.

For the compound `CC1=C(C(=O)Nc2ccc(C)c(Cl)c2)C(c2ccc(F)cc2)NC(=O)N1` (centres unmarked) [Compound 5880766, N-(3-chloro-4-methylphenyl)-4-(4-fluorophenyl)-6-methyl-2-oxo-1,2,3,4-tetrahydro-5-pyrimidinecarboxamide], in the series “in vitro”, the viability at 52 h, 3 μM was 92%. Also, the activity at 3 µM with HPV16 pseudoviruses (setting [1]) was 31.9%; in the series on HPV16 pseudoviruses (setting [2]), 34.6%.

Turning to `O=C(Nc1ccc(Cl)c(Cl)c1)Nc1ccccc1C(=O)O` [Compound 5963375, 2-({[(3,4-dichlorophenyl)amino]carbonyl}amino)benzoic acid], the results for the activity at 3 µM with HPV16 pseudoviruses (setting [1]) and with HPV16 pseudoviruses (setting [2]) were 14.2% and 20.2%, respectively.
